Data as given in ChEMBL document CHEMBL1201861, “Genomics of Drug Sensitity in Cancer screening data, Wellcome Trust Sanger Institute”.

Legend:
Assay type in all cases: functional, cell-based
PF-382 = experiment: cells; conditions: Homo sapiens
Description: SANGER: Inhibition of human PF-382 cell growth in a cell viability assay.

LOUCY = experiment: cells; conditions: Homo sapiens;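 note: growth inhibition of human LOUCY cells, read out with a cell viability assay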
Description: SANGER: Inhibition of human LOUCY cell growth in a cell viability assay.

BC1 cell line = experiment: SANGER: Inhibition of human BC-1 cell growth in a cell viability assay.
D-336MG = experiment: cells; conditions: Homo sapiens
Description: SANGER: Inhibition of human D-336MG cell growth in a cell viability assay.

ST486 = experiment: SANGER: Inhibition of human ST486 cell growth in a cell viability assay.
BOKU = experiment: cells; conditions: Homo sapiens;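 note: growth inhibition of the human BOKU cell line, read out by a cell viability assay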
Description: SANGER: Inhibition of human BOKU cell growth in a cell viability assay.

TALL-1 = experiment: cells; conditions: Homo sapiens;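 note: growth inhibition of cultured human TALL-1 cells, read out by a cell viability assay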
Description: SANGER: Inhibition of human TALL-1 cell growth in a cell viability assay.

GDM-1 = experiment: cells; conditions: Homo sapiens;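 note: cell viability readout used to measure growth inhibition of human GDM-1 cells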
Description: SANGER: Inhibition of human GDM-1 cell growth in a cell viability assay.

TE-15 = experiment: cells; conditions: Homo sapiens;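 note: cell viability readout of growth inhibition in TE-15 cells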
Description: SANGER: Inhibition of human TE-15 cell growth in a cell viability assay.

Kasumi 1 = experiment: cells; conditions: Homo sapiens;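 note: growth inhibition of human Kasumi-1 cells, read out by a cell viability assay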
Description: SANGER: Inhibition of human KASUMI-1 cell growth in a cell viability assay.

OPM-2 = experiment: cells; conditions: Homo sapiens;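 note: growth of OPM-2 cells measured with a viability assay, IC50 for suppression of proliferation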
Description: SANGER: Inhibition of human OPM-2 cell growth in a cell viability assay.

KARPAS-422 = experiment: cells; conditions: Homo sapiens
Description: SANGER: Inhibition of human KARPAS-422 cell growth in a cell viability assay.

SIMA = experiment: cells; conditions: Homo sapiens;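 note: growth inhibition of SIMA cells, measured with a cell viability readout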
Description: SANGER: Inhibition of human SIMA cell growth in a cell viability assay.

HCC1599 = experiment: cells; conditions: Homo sapiens;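 note: growth inhibition of HCC1599 cells, read out in a cell viability assay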
Description: SANGER: Inhibition of human HCC1599 cell growth in a cell viability assay.

DG-75 = experiment: cells; conditions: Homo sapiens;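 note: growth inhibition of DG-75 cells, read out with a cell viability assay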
Description: SANGER: Inhibition of human DG-75 cell growth in a cell viability assay.

EB-3 = experiment: cells; conditions: Homo sapiens;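 note: human EB-3 cells, growth inhibition read out via a cell viability assay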
Description: SANGER: Inhibition of human EB-3 cell growth in a cell viability assay.

HCC 2998 = experiment: cells; conditions: Homo sapiens;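 note: growth inhibition of human HCC2998 cells, measured with a cell viability read-out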
Description: SANGER: Inhibition of human HCC2998 cell growth in a cell viability assay.

T84 = experiment: cells; conditions: Homo sapiens;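 note: growth inhibition measured with a cell viability readout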
Description: SANGER: Inhibition of human T84 cell growth in a cell viability assay.

KOSC-2 = experiment: cells; conditions: Homo sapiens;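 note: growth inhibition of KOSC-2 cells, read out by a cell viability assay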
Description: SANGER: Inhibition of human KOSC-2 cell growth in a cell viability assay.

HT-3 = experiment: cells; conditions: Homo sapiens;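 note: growth inhibition measured with a cell viability readout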
Description: SANGER: Inhibition of human HT-3 cell growth in a cell viability assay.

NCI-H2052 = experiment: cells; conditions: Homo sapiens;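 note: growth inhibition of NCI-H2052 cells, read out with a cell viability assay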
Description: SANGER: Inhibition of human NCI-H2052 cell growth in a cell viability assay.

HMV-2 cell line = experiment: cells; conditions: Homo sapiens;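 note: growth inhibition of HMV-II cells, read out with a cell viability assay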
Description: SANGER: Inhibition of human HMV-II cell growth in a cell viability assay.

IGROV-1 = experiment: cells; conditions: Homo sapiens;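 note: reduction of IGROV-1 cell growth, read out with a viability assay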
Description: SANGER: Inhibition of human IGROV-1 cell growth in a cell viability assay.

HSC-4 = experiment: cells; conditions: Homo sapiens;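 note: growth inhibition of human HSC-4 cells, read out with a cell viability assay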
Description: SANGER: Inhibition of human HSC-4 cell growth in a cell viability assay.

AU565 = experiment: cells; conditions: Homo sapiens;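 note: cell viability assay measuring growth inhibition of human AU565 cells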
Description: SANGER: Inhibition of human AU565 cell growth in a cell viability assay.

NCI-H2452 = experiment: cells; conditions: Homo sapiens;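 note: growth inhibition of NCI-H2452 cells, read out with a cell viability assay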
Description: SANGER: Inhibition of human NCI-H2452 cell growth in a cell viability assay.

NCI-H650 = experiment: cells; conditions: Homo sapiens;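 note: growth inhibition of NCI-H650 cells, read out by a viability assay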
Description: SANGER: Inhibition of human NCI-H650 cell growth in a cell viability assay.

M059J = experiment: cells; conditions: Homo sapiens;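 note: growth inhibition of M059J cells, read out with a cell viability assay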
Description: SANGER: Inhibition of human M059J cell growth in a cell viability assay.

HOP-92 = experiment: cells; conditions: Homo sapiens;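 note: cell viability readout, with IC50 reflecting inhibition of HOP-92 cell growth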
Description: SANGER: Inhibition of human HOP-92 cell growth in a cell viability assay.

NCI-H460 = experiment: cells; conditions: Homo sapiens;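 note: cell viability assay scoring growth inhibition of human NCI-H460 cells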
Description: SANGER: Inhibition of human NCI-H460 cell growth in a cell viability assay.

LCLC-97TM1 = experiment: cells; conditions: Homo sapiens;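 note: cell viability assay measuring growth inhibition of human LCLC-97TM1 cells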
Description: SANGER: Inhibition of human LCLC-97TM1 cell growth in a cell viability assay.

LoVo = experiment: cells; conditions: Homo sapiens;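 note: growth inhibition of human LoVo cells, read out with a cell viability assay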
Description: SANGER: Inhibition of human LoVo cell growth in a cell viability assay.

RO82-W-1 = experiment: cells; conditions: Homo sapiens;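 note: growth inhibition of human RO82-W-1 cells, measured with a cell viability assay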
Description: SANGER: Inhibition of human RO82-W-1 cell growth in a cell viability assay.

IGR-1 = experiment: cells; conditions: Homo sapiens;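 note: growth inhibition of human IGR-1 cells, read out with a cell viability assay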
Description: SANGER: Inhibition of human IGR-1 cell growth in a cell viability assay.

A2780 = experiment: cells; conditions: Homo sapiens;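 note: growth inhibition of A2780 cells, read out with a cell viability assay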
Description: SANGER: Inhibition of human A2780 cell growth in a cell viability assay.

COLO-679 = experiment: cells; conditions: Homo sapiens
Description: SANGER: Inhibition of human COLO-679 cell growth in a cell viability assay.

NCI-H1755 = experiment: cells; conditions: Homo sapiens;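 note: cell viability readout used to measure growth inhibition of NCI-H1755 cells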
Description: SANGER: Inhibition of human NCI-H1755 cell growth in a cell viability assay.

HT-1080 = experiment: cells; conditions: Homo sapiens
Description: SANGER: Inhibition of human HT-1080 cell growth in a cell viability assay.

BXPC-3 = experiment: cells; conditions: Homo sapiens;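 note: growth inhibition of human BxPC-3 cells, read out by a cell viability assay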
Description: SANGER: Inhibition of human BxPC-3 cell growth in a cell viability assay.

GP5d = experiment: cells; conditions: Homo sapiens;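 note: growth inhibition of human GP5d cells, read out with a cell viability assay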
Description: SANGER: Inhibition of human GP5d cell growth in a cell viability assay.

NCI-H2087 = experiment: cells; conditions: Homo sapiens;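 note: growth inhibition determined with a cell viability readout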
Description: SANGER: Inhibition of human NCI-H2087 cell growth in a cell viability assay.

OVCAR-5 = experiment: cells; conditions: Homo sapiens;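 note: growth inhibition of human OVCAR-5 cells, read out with a cell viability assay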
Description: SANGER: Inhibition of human OVCAR-5 cell growth in a cell viability assay.

SJRH30 = experiment: cells; conditions: Homo sapiens;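 note: growth inhibition of human SJRH30 cells, read out with a cell viability assay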
Description: SANGER: Inhibition of human SJRH30 cell growth in a cell viability assay.

EFM-19 = experiment: cells; conditions: Homo sapiens;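 note: growth inhibition of human EFM-19 cells, measured in a cell viability assay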
Description: SANGER: Inhibition of human EFM-19 cell growth in a cell viability assay.

BCPAP = experiment: cells; conditions: Homo sapiens;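 note: growth inhibition of BCPAP cells, read out in a cell viability assay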
Description: SANGER: Inhibition of human BCPAP cell growth in a cell viability assay.

CWR22R = experiment: cells; conditions: Homo sapiens, 22Rv1;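 note: growth inhibition of 22Rv1 cells, read out with a cell viability assay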
Description: SANGER: Inhibition of human 22RV1 cell growth in a cell viability assay.

EFO-27 = experiment: cells; conditions: Homo sapiens;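 note: growth inhibition of EFO-27 cells, read out with a cell viability assay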
Description: SANGER: Inhibition of human EFO-27 cell growth in a cell viability assay.

YAPC = experiment: cells; conditions: Homo sapiens;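 note: growth inhibition of YAPC cells, measured with a cell viability assay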
Description: SANGER: Inhibition of human YAPC cell growth in a cell viability assay.

Detroit 562 = experiment: cells; conditions: Homo sapiens;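 note: growth inhibition of human Detroit 562 cells, read out by a cell viability assay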
Description: SANGER: Inhibition of human Detroit562 cell growth in a cell viability assay.

OAW-42 = experiment: cells; conditions: Homo sapiens;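 note: growth inhibition of OAW-42 cells, read out with a cell viability assay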
Description: SANGER: Inhibition of human OAW-42 cell growth in a cell viability assay.

NCI-H1437 = experiment: cells; conditions: Homo sapiens;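 note: growth inhibition of human NCI-H1437 cells, read out by a cell viability assay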
Description: SANGER: Inhibition of human NCI-H1437 cell growth in a cell viability assay.

CAL-27 = experiment: cells; conditions: Homo sapiens;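 note: Viability-based readout, IC50 reflecting inhibition of CAL-27 cell growth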
Description: SANGER: Inhibition of human CAL-27 cell growth in a cell viability assay.

SK-MEL-24 = experiment: cells; conditions: Homo sapiens;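 note: growth inhibition read out by a cell viability assay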
Description: SANGER: Inhibition of human SK-MEL-24 cell growth in a cell viability assay.

HT55 = experiment: cells; conditions: Homo sapiens;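 note: cell viability readout measuring growth inhibition of human HT55 cells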
Description: SANGER: Inhibition of human HT55 cell growth in a cell viability assay.

KP-4 = experiment: cells; conditions: Homo sapiens;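 note: human KP-4 cells, with growth inhibition read out through a cell viability assay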
Description: SANGER: Inhibition of human KP-4 cell growth in a cell viability assay.

HCC1937 = experiment: cells; conditions: Homo sapiens;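 note: growth inhibition measured with a cell viability read-out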
Description: SANGER: Inhibition of human HCC1937 cell growth in a cell viability assay.

VM-CUB-1 = experiment: cells; conditions: Homo sapiens;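 note: cell viability assay measuring growth inhibition of the human VM-CUB-1 cell line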
Description: SANGER: Inhibition of human VM-CUB-1 cell growth in a cell viability assay.

NCI-H2009 = experiment: cells; conditions: Homo sapiens
Description: SANGER: Inhibition of human NCI-H2009 cell growth in a cell viability assay.

ESS-1 = experiment: cells; conditions: Homo sapiens
Description: SANGER: Inhibition of human ESS-1 cell growth in a cell viability assay.

HCC1419 = experiment: cells; conditions: Homo sapiens
Description: SANGER: Inhibition of human HCC1419 cell growth in a cell viability assay.

H4 = experiment: cells; conditions: Homo sapiens
Description: SANGER: Inhibition of human H4 cell growth in a cell viability assay.

COLO-792 = experiment: cells; conditions: Homo sapiens
Description: SANGER: Inhibition of human COLO-792 cell growth in a cell viability assay.

HN = experiment: cells; conditions: Homo sapiens
Description: SANGER: Inhibition of human HN cell growth in a cell viability assay.

DU-145 = experiment: cells; conditions: Homo sapiens
Description: SANGER: Inhibition of human DU-145 cell growth in a cell viability assay.

In the case of `CCNc1cc(N[C@H]2CC[C@@H](O)CC2)nc(Nc2ccc3c(ccn3Cc3ccccc3)c2)n1`, the IC50 (PF-382) is reported as > 5.12 µM, the IC50 (LOUCY) is reported as > 5.12 µM and the IC50 (BC1 cell line) is reported as > 5.12 µM. The IC50 (D-336MG) was > 5.12 µM, the IC50 (ST486) was > 5.12 µM and the IC50 (BOKU) was > 5.12 µM. The IC50 (TALL-1) was > 5.12 µM, the IC50 (GDM-1) was > 5.12 µM and the IC50 (TE-15) was 5.12 µM. The IC50 (Kasumi 1) was > 5.12 µM, the IC50 (OPM-2) was > 5.12 µM and the IC50 (KARPAS-422) was > 5.12 µM. The IC50 (SIMA) was > 5.12 µM, the IC50 (HCC1599) was > 5.12 µM and the IC50 (DG-75) was > 5.12 µM. The IC50 (EB-3) was > 5.12 µM.
With `COc1cc(C)c(Sc2cnc(NC(=O)c3ccc(CNC(C)C(C)(C)C)cc3)s2)cc1C(=O)N1CCN(C(C)=O)CC1` (centres undefined) the IC50 (PF-382) was > 10.2 µM, the IC50 (LOUCY) was > 10.2 µM and the IC50 (BC1 cell line) was 9.11 µM. The IC50 (D-336MG) was 6.78 µM, the IC50 (ST486) was > 10.2 µM and the IC50 (BOKU) was > 10.2 µM. The IC50 (TALL-1) was > 10.2 µM, the IC50 (GDM-1) was > 10.2 µM and the IC50 (TE-15) was > 10.2 µM. The IC50 (Kasumi 1) was > 10.2 µM, the IC50 (OPM-2) was 8.91 µM and the IC50 (KARPAS-422) was > 10.2 µM. The IC50 (SIMA) was > 10.2 µM, the IC50 (HCC1599) was > 10.2 µM and the IC50 (DG-75) was > 10.2 µM. The IC50 (EB-3) was > 10.2 µM.
For `Cc1ccc(NC(=O)c2cccc(C(C)(C)C#N)c2)cc1Nc1ccc2ncn(C)c(=O)c2c1`, the IC50 (PF-382) was 3.05 µM, the IC50 (LOUCY) was > 4 µM and the IC50 (BC1 cell line) was > 4 µM. The IC50 (D-336MG) was > 4 µM, the IC50 (ST486) was 1.39 µM and the IC50 (TALL-1) was > 4 µM. For the same molecule, the IC50 (GDM-1) was 0.229 µM, the IC50 (TE-15) was > 4 µM and the IC50 (Kasumi 1) was > 4 µM. The IC50 (OPM-2) was 3.03 µM, the IC50 (KARPAS-422) was > 4 µM and the IC50 (SIMA) was > 4 µM. For the same molecule, the IC50 (HCC1599) was > 4 µM, the IC50 (DG-75) was > 4 µM and the IC50 (HCC 2998) was 0.222 µM. The IC50 (EB-3) was > 4 µM.
With `C/C(O)=C(\C#N)C(=O)Nc1cc(Br)ccc1Br` the IC50 (PF-382) was > 16 µM, the IC50 (T84) was > 16 µM and the IC50 (KOSC-2) was > 16 µM. For the same molecule, the IC50 (HT-3) was > 16 µM, the IC50 (NCI-H2052) was > 16 µM and the IC50 (HMV-2 cell line) was > 16 µM. For the same molecule, the IC50 (IGROV-1) was > 16 µM, the IC50 (BC1 cell line) was > 16 µM and the IC50 (HSC-4) was > 16 µM. For the same molecule, the IC50 (AU565) was > 16 µM, the IC50 (ST486) was > 16 µM and the IC50 (NCI-H2452) was > 16 µM. For the same molecule, the IC50 (BOKU) was > 16 µM, the IC50 (NCI-H650) was > 16 µM and the IC50 (M059J) was > 16 µM. The IC50 (HOP-92) was > 16 µM, the IC50 (NCI-H460) was > 16 µM and the IC50 (TALL-1) was > 16 µM. For the same molecule, the IC50 (GDM-1) was > 16 µM, the IC50 (LCLC-97TM1) was > 16 µM and the IC50 (TE-15) was > 16 µM. The IC50 (LoVo) was > 16 µM, the IC50 (RO82-W-1) was > 16 µM and the IC50 (IGR-1) was > 16 µM. The IC50 (A2780) was > 16 µM, the IC50 (COLO-679) was > 16 µM and the IC50 (NCI-H1755) was > 16 µM. For the same molecule, the IC50 (HT-1080) was > 16 µM, the IC50 (BXPC-3) was > 16 µM and the IC50 (GP5d) was > 16 µM. For the same molecule, the IC50 (NCI-H2087) was > 16 µM, the IC50 (OVCAR-5) was > 16 µM and the IC50 (SJRH30) was > 16 µM. For the same molecule, the IC50 (EFM-19) was > 16 µM, the IC50 (BCPAP) was > 16 µM and the IC50 (CWR22R) was > 16 µM. For the same molecule, the IC50 (EFO-27) was > 16 µM, the IC50 (YAPC) was > 16 µM and the IC50 (Detroit 562) was > 16 µM. For the same molecule, the IC50 (OPM-2) was > 16 µM, the IC50 (OAW-42) was > 16 µM and the IC50 (KARPAS-422) was > 16 µM. The IC50 (NCI-H1437) was > 16 µM, the IC50 (CAL-27) was > 16 µM and the IC50 (SK-MEL-24) was > 16 µM. For the same molecule, the IC50 (HT55) was > 16 µM, the IC50 (KP-4) was > 16 µM and the IC50 (HCC1937) was > 16 µM. The IC50 (VM-CUB-1) was > 16 µM, the IC50 (SIMA) was > 16 µM and the IC50 (NCI-H2009) was > 16 µM. The IC50 (HCC1599) was > 16 µM, the IC50 (ESS-1) was > 16 µM and the IC50 (HCC1419) was > 16 µM. The IC50 (H4) was > 16 µM, the IC50 (COLO-792) was > 16 µM and the IC50 (HN) was > 16 µM. The IC50 (DG-75) was > 16 µM, the IC50 (DU-145) was > 16 µM and the IC50 (HCC 2998) was > 16 µM. For the same molecule, the IC50 (EB-3) was > 16 µM.
